According to patent publication US11142524B2, “Substituted-3H-imidazo[4,5-c]pyridine and 1H-pyrrolo[2,3-c]pyridine series of novel Ectonucleotide Pyrophosphatase/Phosphodiesterase-1 (ENPP1) and stimulator for interferon genes (STING) modulators as cancer immunotherapeutics” (Stingray Therapeutics, Inc., priority 2018, dated 2021):

Key:
[1] = molecular target: T1, Recombinant Human ENPP-1 Protein (purified in-house) (Homo sapiens (Human), UniProt P22413); experiment: ENPP1 Assay (ATP), Example 2; assay type: biochemical; conditions: Table 5, ATP substrate; read-out: ENPP1 (IC50 μM) ATP
Method: Assay Buffer: 1 mM CaCl2, 0.2 mM ZnCl2, 50 mM Tris, pH 9.0. Substrate: 100 μM Adenosine 5′-triphosphate disodium salt hydrate (Promega: V703A)—Assay Conc.: 10 μM. Enzyme: 1 ng/μL Recombinant Human ENPP-1 Protein (purified in-house)—Assay Conc.: 5 ng/well of DMSO in 96-well white assay plates. Cell Titer Glo (Promega, cat #G7572).
A ten point serial dilution of drugs was prepared in 10× in assay buffer with the final assay concentrations starting at 10 μM, 3 μM, 1 μM, 0.3 μM . . . 0 μM. A dilution of DMSO was included as a control. The assay plate was set up as follows with each well in duplicate: 75 μL assay buffer+10 μL ENPP1 inhibitor or DMSO Dilutions+10 μL Substrate+5 μL Enzyme (5 ng). Both the enzyme and substrate were added to opposite sides of the well to ensure that there was no interaction until all wells had both components. The plate was then centrifuged gently for 10 seconds, followed by incubation at RT for 20 minutes. To detect levels of ATP, Cell Titer Glo was added 1:1 to each well and incubated for 10 minutes. The reaction was quantified by measuring luminescence using the Envision Plate Reader.

[2] = Physicochemical profile of 107-02 (PSA, Log P, Log S, solubility)
[3] = test system: KPC mouse model of PDAC; experiment: Tumor growth in KPC mouse model of PDAC; assay type: in vivo; conditions: once daily via IP at 20 mg/kg, FIG. 15B
From the text: FIG. 15A a pharmacokinetic (PK) plasma concentration chart for compound 107-02. FIG. 15B is a tumor growth inhibition curve for compound 107-02 following in vivo administration. […] FIGS. 15C and 15D are flowcytometric charts of excised tumors following administration of compound 107-02. At the end of the study, tumors were excised and analyzed for T-cells and tumor-associated macrophages using flow cytometry. *p<0.05.

[4] = test system: IRF-3 reporter in THP1 WT and STING knockout cells; experiment: THP1 IRF-3 Reporter Assay; assay type: cell-based; conditions: 10 μM, primed with 2′3′cGAMP, 24 hours (FIG. 10) or 72 hours (FIG. 11)
Method: FIGS. 10 and 11 depict results of a THP1 IRF-3 Reporter Assay. THP1 WT and STING knockout cells were primed with 2′3′cGAMP and treated with 10 μM ENPP1 inhibitors for 24 hours (FIG. 10) or 72 hours (FIG. 11). Media collected to determine induction of IRF-3 reporter using luminescence reagent QuantiLuc.

[5] = test system: Caco-2; experiment: Caco-2 permeability; assay type: in vitro ADME
[6] = molecular target: PgP (Homo sapiens (Human), UniProt P08183); experiment: PgP Inhibition; assay type: in vitro ADME
[7] = molecular target: T1, Recombinant Human ENPP-1 Protein (purified in-house); experiment: ENPP1 Assay (TMP), Example 2; assay type: biochemical; conditions: Table 5, TMP substrate; read-out: ENPP1 (IC50 μM) TMP
Method: Enzyme: 1 ng/μL Recombinant Human ENPP-1 Protein (purified in-house)—Assay Conc.: 5 ng/well of DMSO in 96-well clear assay plates.
A ten point serial dilution of drugs was prepared in 10× in assay buffer with the final assay concentrations starting at 10 μM, 3 μM, 1 μM, 0.3 μM . . . 0 μM. A dilution of DMSO was included as a control. The assay plate was set up as follows with each well in duplicate: 75 μL assay buffer+10 μL ENPP1 inhibitor or DMSO Dilutions+10 μL Substrate+5 μL Enzyme (5 ng). Both the enzyme and substrate were added to opposite sides of the well to ensure that there was no interaction until all wells had both components. The plate was then centrifuged gently for 10 seconds, followed by an incubation at 37° C. for 45 minutes. The reaction was quantified by measuring absorbance at 405 nm using the Envision Plate Reader.

[8] = molecular target: T2, ENPP1 protein (Homo sapiens (Human), UniProt P22413); experiment: ENPP1 enzymatic assay with TMP substrate (FIG. 8); assay type: biochemical; conditions: 5.0 ng ENPP1, 150 μM TMP substrate
Method: FIG. 8 depicts results of a similar experiment. 5.0 ng of ENPP1 protein exposed to increasing doses of inhibitor (compound 78 or compound 107-02) for 10 minutes in solution, followed by the addition of 150 μM of TMP substrate. The assay was then incubated for 20 minutes and then read at 405 nm on the envision plate reader.
Target sequence in this assay (P22413 whole entry, looked up): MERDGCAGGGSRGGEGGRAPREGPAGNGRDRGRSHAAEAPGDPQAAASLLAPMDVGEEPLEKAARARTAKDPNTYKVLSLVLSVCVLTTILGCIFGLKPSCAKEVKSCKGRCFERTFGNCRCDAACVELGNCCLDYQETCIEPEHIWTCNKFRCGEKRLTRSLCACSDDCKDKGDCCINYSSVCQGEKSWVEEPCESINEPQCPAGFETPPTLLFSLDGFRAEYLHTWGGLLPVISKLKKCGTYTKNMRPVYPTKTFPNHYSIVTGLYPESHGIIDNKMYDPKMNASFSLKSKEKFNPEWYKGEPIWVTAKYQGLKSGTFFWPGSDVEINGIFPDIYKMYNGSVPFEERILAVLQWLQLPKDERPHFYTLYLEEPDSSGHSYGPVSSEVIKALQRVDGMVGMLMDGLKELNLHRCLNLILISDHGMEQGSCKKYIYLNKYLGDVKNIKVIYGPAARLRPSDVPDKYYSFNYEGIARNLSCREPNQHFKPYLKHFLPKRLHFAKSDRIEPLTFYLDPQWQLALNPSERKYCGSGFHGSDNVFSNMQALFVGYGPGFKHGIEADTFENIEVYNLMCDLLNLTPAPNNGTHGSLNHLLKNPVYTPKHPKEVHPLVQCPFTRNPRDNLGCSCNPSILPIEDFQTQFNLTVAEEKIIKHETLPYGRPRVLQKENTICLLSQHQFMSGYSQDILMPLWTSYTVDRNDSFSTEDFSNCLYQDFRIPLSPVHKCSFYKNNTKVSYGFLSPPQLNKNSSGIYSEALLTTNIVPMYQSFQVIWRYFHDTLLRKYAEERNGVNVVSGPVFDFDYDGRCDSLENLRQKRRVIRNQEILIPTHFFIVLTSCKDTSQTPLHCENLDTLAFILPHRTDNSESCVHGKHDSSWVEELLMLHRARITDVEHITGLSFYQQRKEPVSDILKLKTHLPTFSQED

[9] = molecular target: T2, ENPP1 protein; experiment: ENPP1 Thermal Shift Assay (Example 1); assay type: binding
Method: Assay Buffer (1 mM CaCl2, 0.2 mM ZnCl2, 50 mM Tris, pH 9.0) 5000×SYPRO Orange (ThermoFisher cat #S6651) 384-well PCR Plates
Each drug was prepared as a 10× solution in the assay buffer and SYPRO Orange was diluted to 10× concentration in water. Wells were set up in duplicate in a 384-well PCR plate as follows: 14 μL assay buffer, 2 μL ENPP1 Inhibitor or DMSO, 2 μL (0.5 μg) ENPP1 protein. Each well was mixed and incubated on ice for 5 minutes. Post incubation, 2 μL of SYPRO Orange was mixed into each well and followed by a gentle centrifugation. The protein melt reaction was run using ViiA7 software with temperatures beginning at 25° C. and increasing by 0.05° C./s to the maximum temperature of 99° C.
In a 384-well plate, 1.0 μg of ENPP1 protein incubated with 100 μM of the corresponding drug for 5 minutes. Each well exposed to increasing temperatures to determine an unfolding temperature of the protein.
Target sequence in this assay (P22413 whole entry, looked up, change not shown): as the sequence (P22413 whole entry, looked up) above

[10] = test system: ENPP; experiment: Selectivity
[11] = Mouse PK Profile; assay type: in vivo
[12] = test system: Saos-2 Cells; experiment: ENPP1 Mineralization Assay; assay type: cell-based; conditions: FIG. 9, mineralization components for 3 days
Method: Saos-2 Cells (ATCC CAT #HTB-85). Culture Medium. 24-well Tissue Culture Plate. Ascorbic Acid, 5 mg/mL (100×). β-Glycerophosphate, 1M (100×). Phosphate Buffered Saline. Alizarin Red, 40 mM pH 4.2. 70% Ethanol. Dye Extraction Reagent, 10% Methanol+10% Acetic Acid
Saos-2 cells were plated at a density of 1.5×10^6 cells/well and allowed to grow to 100% confluency over the following 1-2 days. Once completely confluent, the media was replaced with fresh media supplemented with 1× ascorbic acid, 1× β-glycerophosphate, and varying concentrations of ENPP1 inhibitor (if applicable). The addition of the mineralization components was considered Day 1. On Day 3, the media was gently aspirated with no wash followed by the addition of fresh media, mineralization components, and ENPP1 inhibitor (if applicable). On day 5, the media was gently aspirated and the cells were washed twice with PBS. The cells were then fixed with ice cold 70% ethanol for 1 hour at 4° C. Cells were washed once with PBS and stained with Alizarin Red for 30 minutes at room temperature with gentle rotation. Stained cells were washed three times with water for 10 minutes at room temperature with gentle rotation. After imaging cells, dye extraction reagent was added to each well and incubated for 30 minutes at room temperature. Alizarin red was quantified by measuring absorbance at a wavelength of 405 nm using the Envision.
FIG. 9 depicts a picture of results of a similar SAOS-2 mineralization assay. SAOS-2 cell were cultured in the presence and absence of ENPP1 inhibitor (compound 78, 107-02 or 108) and exposed to mineralization components for 3 days.

T1 sequence (P22413 whole entry, looked up): as above
PgP, sequence (P08183 whole entry): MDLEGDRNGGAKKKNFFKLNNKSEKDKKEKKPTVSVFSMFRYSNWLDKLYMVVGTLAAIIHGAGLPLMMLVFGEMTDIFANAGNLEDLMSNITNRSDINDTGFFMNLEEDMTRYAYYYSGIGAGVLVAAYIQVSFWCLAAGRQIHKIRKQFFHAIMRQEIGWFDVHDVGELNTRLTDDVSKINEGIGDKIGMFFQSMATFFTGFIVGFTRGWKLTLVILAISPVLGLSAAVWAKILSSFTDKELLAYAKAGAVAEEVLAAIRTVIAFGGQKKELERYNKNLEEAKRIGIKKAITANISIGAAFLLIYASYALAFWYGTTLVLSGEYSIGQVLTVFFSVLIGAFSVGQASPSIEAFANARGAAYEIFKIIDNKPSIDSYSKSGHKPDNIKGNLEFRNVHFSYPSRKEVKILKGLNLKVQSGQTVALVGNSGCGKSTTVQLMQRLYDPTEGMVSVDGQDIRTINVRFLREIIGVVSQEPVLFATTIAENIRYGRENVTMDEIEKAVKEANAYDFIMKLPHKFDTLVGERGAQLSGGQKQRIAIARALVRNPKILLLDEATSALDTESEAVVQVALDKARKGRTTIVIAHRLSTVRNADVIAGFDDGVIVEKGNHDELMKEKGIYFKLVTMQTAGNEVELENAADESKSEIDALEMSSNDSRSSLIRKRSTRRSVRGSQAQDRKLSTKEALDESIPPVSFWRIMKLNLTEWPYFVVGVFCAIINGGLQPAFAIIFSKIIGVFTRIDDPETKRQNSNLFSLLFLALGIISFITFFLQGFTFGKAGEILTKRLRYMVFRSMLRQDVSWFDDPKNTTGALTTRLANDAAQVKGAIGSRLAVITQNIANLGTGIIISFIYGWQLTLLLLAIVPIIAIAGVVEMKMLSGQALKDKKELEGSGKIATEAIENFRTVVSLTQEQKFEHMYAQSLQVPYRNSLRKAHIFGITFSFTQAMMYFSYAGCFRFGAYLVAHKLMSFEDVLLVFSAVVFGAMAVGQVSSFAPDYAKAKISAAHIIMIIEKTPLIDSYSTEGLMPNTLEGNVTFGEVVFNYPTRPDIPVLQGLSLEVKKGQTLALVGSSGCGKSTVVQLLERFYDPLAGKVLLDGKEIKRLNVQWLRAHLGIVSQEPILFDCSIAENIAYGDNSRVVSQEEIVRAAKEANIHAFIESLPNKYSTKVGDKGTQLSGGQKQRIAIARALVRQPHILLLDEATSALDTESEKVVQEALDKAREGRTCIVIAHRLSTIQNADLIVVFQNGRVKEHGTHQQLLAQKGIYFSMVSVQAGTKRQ

COc1ccc(NC(=O)CSc2nc3c(C)c(C#N)ncc3[nH]2)cc1OP(=O)(O)O [Compound 107-02, 5-(2-((6-Cyano-7-methyl-3H-imidazo[4,5-c]pyridin-2-yl)thio)acetamido)-2-methoxyphenyl dihydrogen phosphate]
IC50 [1]: 0.211 µM | solubility [2]: 640 µg/mL | logP ([2]; pH 7.4): 0.009 | tumor growth of KPC mouse model of PDAC [3]: inhibits tumor growth | IRF-3 response [4]: significant increase | Caco2 ([5]; first entry (Caco2)): −5.28 | Caco-2 ([5]; second entry (Caco-2)): −4.867 | PgP Inhibition [6]: Negative | IC50 [7]: 0.742 µM | enzymatic activity [8]: significant decrease | Tm (° C.) ([9]; Table 2, FIG. 7, 100 μM drug, 1.0 μg ENPP1, NT 60.05): 63.89 °C | ΔTm at 100 µM ([9]; read-out: ΔTm (° C.)): 3.84 °C | Selectivity [10]: Highly selective ENPPi | Mouse PK Profile CO [11]: 2840.69 ng/mL | AUC(0-t) ([11]; plasma): 1640 ng·h/mL | half-life ([11]; plasma): 1.83 h | AUC(0-inf) ([11]; plasma, read-out: AUCINF obs): 1650 ng·h/mL | clearance ([11]; plasma, read-out: CL obs): 22.1 mL/min/kg | total mineralization [12]: significant decrease
